Type in all cases: biochemical
Experiment [1] has as its target T1, Stp1 (Schizosaccharomyces pombe, UniProt P41893).
T1 construct: made in house; host or cells: E. coli
T1 sequence (P41893 1-156): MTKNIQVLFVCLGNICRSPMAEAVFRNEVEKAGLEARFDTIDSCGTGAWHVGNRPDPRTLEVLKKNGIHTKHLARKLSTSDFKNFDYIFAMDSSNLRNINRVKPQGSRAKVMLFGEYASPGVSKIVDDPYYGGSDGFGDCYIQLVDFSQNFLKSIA
In words: Phosphatase panel, pNPP assay. As to conditions: at 10 μM.

The target of experiment [2] is T2, LAR (Homo sapiens, UniProt P10586).
T2 construct: The intracellular fragment of PTPa, LAR and CD45 containing both of the PTPase domains was cleaved off the fusion protein; GST (cleaved yes); made in house
T2 sequence (P10586 1285-1907 limits assumed): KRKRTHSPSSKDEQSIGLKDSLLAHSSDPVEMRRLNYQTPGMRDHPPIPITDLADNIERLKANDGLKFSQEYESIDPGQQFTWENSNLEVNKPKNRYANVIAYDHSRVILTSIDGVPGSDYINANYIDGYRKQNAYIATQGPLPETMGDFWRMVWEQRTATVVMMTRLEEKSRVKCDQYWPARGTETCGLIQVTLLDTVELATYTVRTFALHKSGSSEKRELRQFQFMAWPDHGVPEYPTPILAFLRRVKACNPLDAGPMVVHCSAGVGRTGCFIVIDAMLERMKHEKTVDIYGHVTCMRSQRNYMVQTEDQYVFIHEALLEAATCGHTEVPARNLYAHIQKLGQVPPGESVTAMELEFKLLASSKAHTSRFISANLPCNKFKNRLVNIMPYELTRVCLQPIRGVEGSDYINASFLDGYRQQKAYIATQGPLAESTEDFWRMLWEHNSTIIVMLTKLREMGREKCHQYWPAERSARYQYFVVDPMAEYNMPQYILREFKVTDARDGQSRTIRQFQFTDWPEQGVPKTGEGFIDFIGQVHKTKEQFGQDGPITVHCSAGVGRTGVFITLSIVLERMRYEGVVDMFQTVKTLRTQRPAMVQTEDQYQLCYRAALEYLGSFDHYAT
In words: Phosphatase panel, pNPP assay. As to conditions: 2 mM pNPP; read-out: Inhibition Potency, IC50.

Experiment [3] has as its target T3, SHP1 (Homo sapiens, UniProt P29350).
T3 construct: the catalytic domains of SHP1 and SHP2 were expressed and purified as (His)6-fusion proteins; (His)6; made in house
T3 sequence (P29350 244-515 limits assumed): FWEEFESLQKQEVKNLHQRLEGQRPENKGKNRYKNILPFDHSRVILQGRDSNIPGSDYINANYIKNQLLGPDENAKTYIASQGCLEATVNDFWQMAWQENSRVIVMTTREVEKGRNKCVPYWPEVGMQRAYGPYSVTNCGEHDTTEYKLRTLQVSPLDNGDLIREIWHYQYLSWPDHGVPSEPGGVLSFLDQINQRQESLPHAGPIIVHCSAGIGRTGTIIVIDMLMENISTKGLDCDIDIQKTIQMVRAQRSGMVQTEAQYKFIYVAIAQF
Kind of experiment: Phosphatase panel, pNPP assay. As to conditions: 2 mM pNPP; read-out: Inhibition Potency, IC50.

For experiment [4], the target named is T4, SHP2 (Homo sapiens, UniProt Q06124).
T4 construct: the catalytic domains of SHP1 and SHP2 were expressed and purified as (His)6-fusion proteins; (His)6; made in house
T4 sequence (Q06124 247-517 limits assumed): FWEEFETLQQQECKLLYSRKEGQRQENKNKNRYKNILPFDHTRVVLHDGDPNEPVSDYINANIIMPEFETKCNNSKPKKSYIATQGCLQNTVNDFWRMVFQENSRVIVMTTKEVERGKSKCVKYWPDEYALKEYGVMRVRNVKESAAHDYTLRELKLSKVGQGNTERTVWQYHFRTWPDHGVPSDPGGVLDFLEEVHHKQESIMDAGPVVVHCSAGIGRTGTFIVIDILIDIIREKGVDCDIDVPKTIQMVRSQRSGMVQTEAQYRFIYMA
Kind of experiment: Phosphatase panel, pNPP assay. Conditions: 2 mM pNPP; read-out: Inhibition Potency, IC50.

Experiment [5] has as its target T5, VHR (Homo sapiens, UniProt P51452).
T5 construct: made in house; host or cells: E. coli
Kind of experiment: Phosphatase panel, pNPP assay. Conditions: at 10 μM.

In experiment [6] the target is T6, Cdc25A (Homo sapiens, UniProt P30304).
T6 sequence (P30304 1-524): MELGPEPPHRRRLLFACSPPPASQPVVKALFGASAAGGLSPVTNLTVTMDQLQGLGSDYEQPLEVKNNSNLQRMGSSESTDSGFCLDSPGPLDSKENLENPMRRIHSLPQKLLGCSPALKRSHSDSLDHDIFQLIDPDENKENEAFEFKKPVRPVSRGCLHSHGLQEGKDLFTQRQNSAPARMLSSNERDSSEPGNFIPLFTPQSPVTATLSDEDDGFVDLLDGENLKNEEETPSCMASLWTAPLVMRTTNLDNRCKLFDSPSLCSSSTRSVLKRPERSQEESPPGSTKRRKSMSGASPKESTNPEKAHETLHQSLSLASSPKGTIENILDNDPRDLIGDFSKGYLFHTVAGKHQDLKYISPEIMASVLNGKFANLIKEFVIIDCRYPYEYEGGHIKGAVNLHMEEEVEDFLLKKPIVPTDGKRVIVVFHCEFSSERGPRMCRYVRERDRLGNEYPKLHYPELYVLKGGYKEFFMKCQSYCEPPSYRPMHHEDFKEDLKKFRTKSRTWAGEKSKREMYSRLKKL
Kind of experiment: Phosphatase panel, pNPP assay. Conditions: at 10 μM.

Experiment [7] concerns the target T7, TCPTP (Homo sapiens, UniProt P17706).
T7 construct: catalytic domain (amino acid residues 1-288) of the human T cell PTPase (TCPTP); made in house
T7 sequence (P17706 1-288): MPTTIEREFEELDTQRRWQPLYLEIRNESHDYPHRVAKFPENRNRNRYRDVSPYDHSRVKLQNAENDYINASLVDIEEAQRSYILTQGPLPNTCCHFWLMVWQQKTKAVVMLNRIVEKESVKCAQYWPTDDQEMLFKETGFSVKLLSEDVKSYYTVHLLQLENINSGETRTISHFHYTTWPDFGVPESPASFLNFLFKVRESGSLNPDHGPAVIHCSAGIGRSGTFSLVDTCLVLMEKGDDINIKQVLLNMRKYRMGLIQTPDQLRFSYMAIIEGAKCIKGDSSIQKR
In words: PTPase activity assay with pNPP substrate. Conditions: pH 7.0, ionic strength 0.15 M, read-out: Inhibition Potency, Ki.

Each structure is given as a SMILES string.

T5 sequence (P51452 whole entry, species assumed): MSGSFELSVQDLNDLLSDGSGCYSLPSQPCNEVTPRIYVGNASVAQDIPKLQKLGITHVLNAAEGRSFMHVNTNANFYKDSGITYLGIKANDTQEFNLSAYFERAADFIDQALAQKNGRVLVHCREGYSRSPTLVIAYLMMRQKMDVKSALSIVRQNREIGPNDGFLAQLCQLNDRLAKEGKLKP

As for `NC(=O)C(Cc1ccc(C(F)(F)P(=O)(O)O)cc1)NC(=O)C(CC(=O)O)NC(=O)Cc1ccc(C(F)(F)P(=O)(O)O)cc1` (stereo not shown) [Compound 40], the “Inhibition Potency” value in experiment [1], in experiment [5] and in experiment [6] was “No inhibition at 10 μM” each time. Moreover, the IC50 in experiment [2] stood at 72 µM; in experiment [3] it was 11 µM; in experiment [4], 10 µM. The Ki in experiment [7] is 0.026 µM.
